These compounds were tested against human chemokine receptor CXCR7 (Homo sapiens (Human), UniProt P25106) (assay: Tango CXCR7-bla U2OS beta-arrestin recruitment assay (beta-lactamase reporter, FRET), antagonism of CXCL12/SDF1-α). Settings: antagonistic effect on CXCR7; Tango CXCR7-bla U2OS cells, CXCL12/SDF1-α at its EC80.
Assay type: cell-based
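Further: compounds preincubated 15 min before CXCL12 addition, then 22 h at 37 °C, FRET emission ratio read with CCF4-AM substrate after 2 h.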

Sequence of human chemokine receptor CXCR7 (P25106 whole entry): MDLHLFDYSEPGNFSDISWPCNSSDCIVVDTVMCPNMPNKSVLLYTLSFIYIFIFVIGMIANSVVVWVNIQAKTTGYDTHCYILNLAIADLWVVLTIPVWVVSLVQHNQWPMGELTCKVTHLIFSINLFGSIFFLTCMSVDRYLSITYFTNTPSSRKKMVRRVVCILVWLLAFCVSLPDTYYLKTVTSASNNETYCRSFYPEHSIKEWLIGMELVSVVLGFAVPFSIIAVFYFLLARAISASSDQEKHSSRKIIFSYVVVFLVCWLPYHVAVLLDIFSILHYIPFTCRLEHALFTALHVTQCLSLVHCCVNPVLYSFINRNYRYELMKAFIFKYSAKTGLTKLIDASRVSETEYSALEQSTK

SMILES | IC50 [nM]
Cn1cc(C(C)(C)NC(=O)[C@H]2CN(C3CCCC3)CC[C@@H]2NC(=O)c2cc(-c3ccc(F)cc3F)on2)cn1 [Example 4.034] | 255
O=C(N[C@H]1CCN(C2CCCC2)C[C@@H]1C(=O)NC1(C2CC2)CC1)c1cc(-c2ccc(F)cc2F)on1 [Example 4.036] | 127
CC(NC(=O)[C@H]1CN(C2CCCC2)CC[C@@H]1NC(=O)c1cc(-c2ccc(F)cc2F)on1)C1CCCO1 (stereo partly drawn) [Example 4.037] | 280
CC(NC(=O)[C@H]1CN(C2CCCC2)CC[C@@H]1NC(=O)c1cc(-c2ccc(F)cc2F)on1)c1nc[nH]n1 (stereo partly drawn) [Example 4.038] | 522
C#CC(C)NC(=O)[C@H]1CN(C2CCCC2)CC[C@@H]1NC(=O)c1cc(-c2ccc(F)cc2F)on1 (stereo partly drawn) [Example 4.039] | 393
Cn1cc(C(C)(C)NC(=O)[C@H]2CN(CC3CC3)CC[C@@H]2NC(=O)c2cc(-c3ccc(F)cc3F)on2)cn1 [Example 4.043] | 158
O=C(N[C@H]1CCN(CC2CC2)C[C@@H]1C(=O)NC1(C2CC2)CC1)c1cc(-c2ccc(F)cc2F)on1 [Example 4.045] | 164
CC(NC(=O)[C@H]1CN(CC2CC2)CC[C@@H]1NC(=O)c1cc(-c2ccc(F)cc2F)on1)C1CCCO1 (stereo partly drawn) [Example 4.046] | 290
CC(NC(=O)[C@H]1CN(CC2CC2)CC[C@@H]1NC(=O)c1cc(-c2ccc(F)cc2F)on1)c1nc[nH]n1 (stereo partly drawn) [Example 4.047] | 318
C#CC(C)NC(=O)[C@H]1CN(CC2CC2)CC[C@@H]1NC(=O)c1cc(-c2ccc(F)cc2F)on1 (stereo partly drawn) [Example 4.048] | 247
CC(NC(=O)[C@H]1CN(CC2CC2)CC[C@@H]1NC(=O)c1cc(-c2ccc(F)cc2F)on1)c1ccon1 (stereo partly drawn) [Example 4.049] | 148
N#CCN1CC[C@H](NC(=O)c2cc(-c3ccc(F)cc3F)on2)[C@@H](C(=O)NC2(c3ncccn3)CC2)C1 [Example 4.051] | 356
O=C(N[C@H]1CCN(CC2CC2)C[C@@H]1C(=O)NC1(c2ccc(F)cc2)CC1)c1cc(-c2ccc(F)cc2F)on1 [Example 4.062] | 141
O=C(N[C@H]1CCN(CC2CC2)C[C@@H]1C(=O)NC1(c2cccc(F)c2)CC1)c1cc(-c2ccc(F)cc2F)on1 [Example 4.063] | 142
Cc1cccc(CNC(=O)[C@H]2CN(CC3CC3)CC[C@@H]2NC(=O)c2cc(-c3ccc(F)cc3F)on2)n1 [Example 4.064] | 753
CCN(CC)C(=O)[C@H]1CN(CC2CC2)CC[C@@H]1NC(=O)c1cc(-c2ccc(F)cc2F)on1 [Example 4.066] | 320
CON(C)C(=O)[C@@H]1CN(CC2CC2)CC[C@H]1NC(=O)c1cc(-c2ccc(F)cc2F)on1 [Example 4.069] | 153
CCN(CC)C(=O)[C@@H]1CN(CC2CC2)CC[C@H]1NC(=O)c1cc(-c2ccc(F)cc2F)on1 [Example 4.071] | 212
CCOC(=O)[C@H](NC(=O)[C@H]1CN(CC2CC2)CCC1NC(=O)c1cc(-c2ccc(F)cc2F)on1)c1ccccc1 (stereo partly drawn) [Example 4.073] | 173
O=C(N[C@H]1CCN(CC2CC2)C[C@@H]1C(=O)N1CC[C@@H]1c1ncccn1)c1cc(-c2ccc(F)cc2F)on1 [Example 4.079a] | 186
CC(NC(=O)[C@H]1CN(CC2CC2)CC[C@@H]1NC(=O)c1cc(-c2ccc(F)cc2F)on1)c1ncccn1 (stereo partly drawn) [Example 4.080a] | 851
O=C(N[C@H]1CCN(CC2CC2)C[C@@H]1C(=O)NC1(c2cncnc2)CC1)c1cc(-c2ccc(F)cc2F)on1 [Example 4.081] | 426
C[C@@H](NC(=O)[C@H]1CN(C2CCC2)CC[C@@H]1NC(=O)c1cc(-c2ccc(F)cc2F)on1)c1ncccn1 [Example 4.084] | 232
Cc1cccnc1C(C)(C)CNC(=O)[C@@H]1CN(C2CCC2)CC[C@H]1NC(=O)c1cc(-c2ccc(F)cc2F)on1 [Example 4.086] | 472
CC(C)(CNC(=O)[C@@H]1CN(C2CCC2)CC[C@H]1NC(=O)c1cc(-c2ccc(F)cc2F)on1)c1ccccn1 [Example 4.087] | 342
Cc1ccccc1C1(NC(=O)[C@H]2CN(C3CCC3)CC[C@@H]2NC(=O)c2cc(-c3ccc(F)cc3F)on2)CC1 [Example 4.088] | 138
O=C(N[C@@H]1CCN(C2CCC2)C[C@H]1C(=O)NC1(c2ccc(F)cc2)COC1)c1cc(-c2ccc(F)cc2F)on1 [Example 4.089] | 299
CC(C)(CNC(=O)[C@@H]1CN(C2CCC2)CC[C@H]1NC(=O)c1cc(-c2ccc(F)cc2F)on1)c1ccccc1Cl [Example 4.091] | 134
O=C(N[C@@H]1CCN(C2CCC2)C[C@H]1C(=O)NCC1(c2ccccn2)CC1)c1cc(-c2ccc(F)cc2F)on1 [Example 4.093] | 165
O=C(N[C@@H]1CCN(C2CCC2)C[C@H]1C(=O)NC1(c2cccc(Cl)c2)COC1)c1cc(-c2ccc(F)cc2F)on1 [Example 4.094] | 201

Next, values leading:

IC50 [nM] | SMILES
32 | O=C(N[C@H]1CCN(C2CCCC2)C[C@@H]1C(=O)NC1(c2ccccn2)CC1)c1cc(-c2ccc(F)cc2F)on1 [Example 4.028]
4 | O=C(N[C@H]1CCN(CC2CC2)C[C@@H]1C(=O)NC1(c2ccccn2)CC1)c1cc(-c2ccc(F)cc2F)on1 [Example 4.031]
0.3 | CC(C)(NC(=O)[C@H]1CN(CC2CC2)CC[C@@H]1NC(=O)c1cc(-c2ccc(F)cc2F)on1)c1ccccn1 [Example 4.033]
56 | Cc1nc(C(C)(C)NC(=O)[C@H]2CN(C3CCCC3)CC[C@@H]2NC(=O)c2cc(-c3ccc(F)cc3F)on2)no1 [Example 4.035]
96 | CC(NC(=O)[C@H]1CN(C2CCCC2)CC[C@@H]1NC(=O)c1cc(-c2ccc(F)cc2F)on1)c1ccn[nH]1 (stereo partly drawn) [Example 4.041]
74 | C[C@@H](NC(=O)[C@H]1CN(C2CCCC2)CC[C@@H]1NC(=O)c1cc(-c2ccc(F)cc2F)on1)c1cccnc1 [Example 4.042]
75 | Cc1nc(C(C)(C)NC(=O)[C@H]2CN(CC3CC3)CC[C@@H]2NC(=O)c2cc(-c3ccc(F)cc3F)on2)no1 [Example 4.044]
1 | O=C(N[C@H]1CCN(CC2CC2)C[C@@H]1C(=O)NC1(c2ccccc2)CC1)c1cc(-c2ccc(F)cc2F)on1 [Example 4.053]
1 | O=C(N[C@H]1CCN(CC2CC2)C[C@@H]1C(=O)NC1(c2ncccc2F)CC1)c1cc(-c2ccc(F)cc2F)on1 [Example 4.054]
16 | O=C(N[C@H]1CCN(CC2CC2)C[C@@H]1C(=O)NC1(c2ccncn2)CC1)c1cc(-c2ccc(F)cc2F)on1 [Example 4.055]
64 | CCOC(=O)C1(NC(=O)[C@H]2CN(CC3CC3)CC[C@@H]2NC(=O)c2cc(-c3ccc(F)cc3F)on2)CC1 [Example 4.056]
13 | O=C(N[C@H]1CCN(CC2CC2)C[C@@H]1C(=O)NC1(c2ccccc2)CCC1)c1cc(-c2ccc(F)cc2F)on1 [Example 4.057]
90 | O=C(N[C@H]1CCN(CC2CC2)C[C@@H]1C(=O)N(CCF)Cc1ccccc1)c1cc(-c2ccc(F)cc2F)on1 [Example 4.058]
61 | COc1cccc(C2(NC(=O)[C@H]3CN(CC4CC4)CC[C@@H]3NC(=O)c3cc(-c4ccc(F)cc4F)on3)CC2)c1 [Example 4.059]
1 | O=C(N[C@H]1CCN(CC2CC2)C[C@@H]1C(=O)NC1(c2ccccc2F)CC1)c1cc(-c2ccc(F)cc2F)on1 [Example 4.061]
14 | O=C(N[C@H]1CCN(CC2CC2)C[C@@H]1C(=O)NCCc1ccccc1Cl)c1cc(-c2ccc(F)cc2F)on1 [Example 4.065]
20 | O=C(N[C@H]1CCN(CC2CC2)C[C@@H]1C(=O)N1CC[C@@H]1c1ccccc1)c1cc(-c2ccc(F)cc2F)on1 [Example 4.067a]

IC50 [nM] | SMILES
2 | O=C(N[C@@H]1CCN(CC2CC2)C[C@H]1C(=O)N1CC[C@@H]1c1ccccc1)c1cc(-c2ccc(F)cc2F)on1 [Example 4.067b]
1 | O=C(N[C@H]1CCN(CC2CC2)C[C@@H]1C(=O)NC1(c2cccc(Cl)c2)CC1)c1cc(-c2ccc(F)cc2F)on1 [Example 4.068]
16 | COc1ccccc1C(C)NC(=O)[C@H]1CN(CC2CC2)CC[C@@H]1NC(=O)c1cc(-c2ccc(F)cc2F)on1 (stereo partly drawn) [Example 4.072]
27 | COc1ccccc1C1(NC(=O)[C@H]2CN(CC3CC3)CC[C@@H]2NC(=O)c2cc(-c3ccc(F)cc3F)on2)CC1 [Example 4.074]
2 | C[C@@H](NC(=O)[C@H]1CN(CC2CC2)CC[C@@H]1NC(=O)c1cc(-c2ccc(F)cc2F)on1)c1cccc(Br)c1 [Example 4.075]
97 | O=C(N[C@H]1CCN(CC2CC2)C[C@@H]1C(=O)NC1(c2ccccc2O)CC1)c1cc(-c2ccc(F)cc2F)on1 [Example 4.076]
4 | O=C(N[C@H]1CCN(CC2CC2)C[C@@H]1C(=O)NC1(c2nccc[n+]2[O-])CC1)c1cc(-c2ccc(F)cc2F)on1 [Example 4.077]
64 | O=C(NC1CCN(CC2CC2)CC1C(=O)N1CCCC1c1ncccn1)c1cc(-c2ccc(F)cc2F)on1 (stereo not drawn) [Example 4.078]
15 | O=C(N[C@H]1CCN(CC2CC2)C[C@@H]1C(=O)N1CCCC1c1ncccn1)c1cc(-c2ccc(F)cc2F)on1 (stereo partly drawn) [Example 4.078b]
18 | O=C(N[C@@H]1CCN(CC2CC2)C[C@H]1C(=O)N1CC[C@@H]1c1ncccn1)c1cc(-c2ccc(F)cc2F)on1 [Example 4.079b]
15 | CC(NC(=O)[C@@H]1CN(CC2CC2)CC[C@H]1NC(=O)c1cc(-c2ccc(F)cc2F)on1)c1ncccn1 (stereo partly drawn) [Example 4.080b]
20 | O=C(N[C@H]1CCN(C2CCC2)C[C@@H]1C(=O)NC1(c2ncccc2F)CC1)c1cc(-c2ccc(F)cc2F)on1 [Example 4.082]
11 | CC(C)(NC(=O)[C@H]1CN(C2CCC2)CC[C@@H]1NC(=O)c1cc(-c2ccc(F)cc2F)on1)c1ncccn1 [Example 4.083]
77 | C[C@@H](NC(=O)[C@H]1CN(C2CCC2)CC[C@@H]1NC(=O)c1cc(-c2ccc(F)cc2F)on1)c1ncccn1 [Example 4.084b]
61 | O=C(N[C@@H]1CCN(C2CCC2)C[C@H]1C(=O)NC1(Cc2ccccc2)COC1)c1cc(-c2ccc(F)cc2F)on1 [Example 4.085]
126 | O=C(N[C@@H]1CCN(C2CCC2)C[C@H]1C(=O)NCC1(c2ccc(Cl)cc2)CC1)c1cc(-c2ccc(F)cc2F)on1 [Example 4.092]
